{
  "source": "patent US20250230193A1",
  "about": "“CYCLIC COMPOUND HAVING SELECTIVE KRAS INHIBITORY EFFECT ON HRAS AND NRAS” (CHUGAI SEIYAKU KABUSHIKI KAISHA, priority 2022, published 2025)",
  "key": {"[1]": {"biological_target": "GDP-bound HRAS wild-type protein (Homo sapiens, UniProt P01112)", "sequence (P01112 whole entry)": "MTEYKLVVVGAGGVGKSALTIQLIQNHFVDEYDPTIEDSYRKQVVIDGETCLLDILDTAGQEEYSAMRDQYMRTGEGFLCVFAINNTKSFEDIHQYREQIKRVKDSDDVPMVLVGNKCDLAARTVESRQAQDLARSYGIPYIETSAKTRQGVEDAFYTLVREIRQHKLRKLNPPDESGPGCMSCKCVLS", "test": "Binding to HRAS by surface plasmon resonance (SPR), Single Cycle Kinetics"}, "[2]": {"biological_target": "GDP-bound NRAS wild-type protein (Homo sapiens, UniProt P01111)", "sequence (P01111 whole entry)": "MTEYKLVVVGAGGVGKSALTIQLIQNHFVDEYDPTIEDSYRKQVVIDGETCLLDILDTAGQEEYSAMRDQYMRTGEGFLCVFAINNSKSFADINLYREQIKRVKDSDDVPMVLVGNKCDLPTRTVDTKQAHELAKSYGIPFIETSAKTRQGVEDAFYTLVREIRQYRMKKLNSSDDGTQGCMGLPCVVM", "test": "Binding to NRAS by surface plasmon resonance (SPR), Single Cycle Kinetics"}, "[3]": {"conditions": "KD ratio, GDP-bound HRAS wild-type vs GDP-bound KRAS wild-type, SPR"}, "[4]": {"conditions": "KD ratio, GDP-bound NRAS wild-type vs GDP-bound KRAS wild-type, SPR"}},
  "note": "*1 amine or outer side, *2 acyl side, *3 side chain or, on linkers, in order; H or OH if unused. Where a SMILES comes first, the peptide text is derived from it. Bridges are numbered along the chain shown (N, C = ends). [ ]: non-standard residue; d: D form. The star is where a group is joined. X21 = O=C([C@H](Cc1ccc(C(F)(F)F)cc1)N(CC1CCCC1)[*:1])[*:2]; hPhe(3-Cl-4-CF3) = N[C@@H](CCc1ccc(C(F)(F)F)c(Cl)c1)C(=O)O; NPrPhe(4-CF3) = CCCN[C@@H](Cc1ccc(C(F)(F)F)cc1)C(=O)O; NMeGly(cPent) = CN[C@H](C(=O)O)C1CCCC1; Hyp = O=C(O)[C@@H]1C[C@@H](O)CN1; NMeD = CN[C@@H](CC(=O)O)C(=O)O; NMeL = CN[C@@H](CC(C)C)C(=O)O; N(Me)CH2CH2OMe = COCCN(C)*; Morpholide = C1CN(*)CCO1; Ac5c = NC1(C(=O)O)CCCC1; Sar = CNCC(=O)O",
  "data": [
    {"smiles": "CCCN1C(=O)CN(C)C(=O)CN(C)C(=O)[C@H]([C@@H](C)CC)NC(=O)[C@H](CC(C)C)N(C)C(=O)C[C@@H](C(=O)N(C)CCOC)N(C)C(=O)[C@H](C2CCCC2)N(C)C(=O)C2(CCCC2)NC(=O)[C@@H]2CCCN2C(=O)[C@H](CCc2ccc(C(F)(F)F)c(Cl)c2)NC(=O)CN(C)C(=O)[C@@H]1Cc1ccc(C(F)(F)F)cc1", "note": "[PP0391] ([NMeL]I[Sar][Sar][NPrPhe(4-CF3)][Sar][hPhe(3-Cl-4-CF3)]P[Ac5c][NMeGly(cPent)][NMeD]-{N(Me)CH2CH2OMe}; lactam N-11)", "values": [
      {"measurement": "HRAS/KRAS (ratio of KD for GDP-bound HRAS wild-type to KD for KRAS)", "setting": "[1]; KD ratio HRAS/KRAS, SPR", "value": "B (a compound having 3 or more and less than 10 is denoted as B)"},
      {"measurement": "NRAS/KRAS (ratio of KD for GDP-bound NRAS wild-type to KD for KRAS)", "setting": "[2]; KD ratio NRAS/KRAS, SPR", "value": "B (a compound having 3 or more and less than 10 is denoted as B)"}
    ]},
    {"smiles": "CCO[C@@H]1C[C@H]2C(=O)NC3(CCC3)C(=O)N(C)[C@@H](C3CCCC3)C(=O)N(C)[C@H](C(=O)N3CCOCC3)CC(=O)N(C)[C@@H](COC3CC3)C(=O)N[C@@H]([C@@H](C)CC)C(=O)N(C)CC(=O)N(C)[C@H]3CCCCCN(C3=O)[C@@H](Cc3ccc(C(F)(F)F)cc3)C(=O)N(C)CC(=O)N[C@@H](CCc3cc(F)c(C(F)(F)F)c(F)c3)C(=O)N2C1", "note": "[PP0852]", "values": [
      {"measurement": "HRAS/KRAS (ratio of KD value with respect to HRAS to KD value with respect to KRAS)", "setting": "[1]; [3]", "value": "B (a compound having 3 or more and less than 10 is denoted as B)"},
      {"measurement": "NRAS/KRAS (ratio of KD value with respect to NRAS to KD value with respect to KRAS)", "setting": "[2]; [4]", "value": "B (a compound having 3 or more and less than 10 is denoted as B)"}
    ]},
    {"smiles": "CCC[C@H]1C(=O)N[C@@H]([C@@H](C)CC)C(=O)N(C2CC2)CC(=O)N(C)[C@H]2C/C=C\\CCN(C2=O)[C@@H](Cc2ccc(C(F)(F)F)cc2)C(=O)N(C)CC(=O)N[C@@H](CCc2ccc(C(F)(F)F)c(OC)c2)C(=O)N2C[C@H](OCC)C[C@H]2C(=O)N(C)C2(CCC2)C(=O)N(C)[C@@H](C(CC)CC)C(=O)N(C)[C@H](C(=O)N(C)C)CC(=O)N1C", "note": "[PP2313]", "values": [
      {"measurement": "HRAS/KRAS (ratio of KD value with respect to HRAS to KD value with respect to KRAS)", "setting": "[1]; SPR, GDP-bound HRAS wild-type vs GDP-bound KRAS wild-type", "value": "A (a compound having 10 or more and less than 20 is denoted as A)"},
      {"measurement": "NRAS/KRAS (ratio of KD value with respect to NRAS to KD value with respect to KRAS)", "setting": "[2]; SPR, GDP-bound NRAS wild-type vs GDP-bound KRAS wild-type", "value": "AA (a compound having 20 or more is denoted as AA)"}
    ]},
    {"smiles": "CC[C@H](C)[C@@H]1NC(=O)[C@H](CC(C)C)N(C)C(=O)C[C@@H](C(=O)N2CCOCC2)N(C)C(=O)[C@H](C2CCCC2)N(C)C(=O)C2(CCCC2)NC(=O)[C@@H]2CCCN2C(=O)[C@H](CCc2ccc(C(F)(F)F)c(Cl)c2)NC(=O)CN(C)C(=O)[C@H](Cc2ccc(C(F)(F)F)cc2)N(CC2CCCC2)C(=O)CN(C)C(=O)CN(C)C1=O", "note": "[PP0124] ([NMeL]I[Sar][Sar][X21][Sar][hPhe(3-Cl-4-CF3)]P[Ac5c][NMeGly(cPent)][NMeD]-Morpholide; lactam N-11)", "values": [
      {"measurement": "HRAS/KRAS (ratio of KD for GDP-bound HRAS wild-type to KD for KRAS)", "setting": "[1]; KD ratio HRAS/KRAS, SPR", "value": "C (A compound having a KD ratio of 0.1 or more and less than 3 is denoted as C)"},
      {"measurement": "NRAS/KRAS (ratio of KD for GDP-bound NRAS wild-type to KD for KRAS)", "setting": "[2]; KD ratio NRAS/KRAS, SPR", "value": "C (A compound having a KD ratio of 0.1 or more and less than 3 is denoted as C)"}
    ]},
    {"smiles": "CCCN1C(=O)CN(C)C(=O)CN(C)C(=O)[C@H]([C@@H](C)CC)NC(=O)[C@H](CC(C)C)N(C)C(=O)C[C@@H](C(=O)N2CCOCC2)N(C)C(=O)[C@H](C2CCCC2)N(C)C(=O)C2(CCCC2)NC(=O)[C@@H]2C[C@@H](OC)CN2C(=O)[C@H](CCc2ccc(C(F)(F)F)c(Cl)c2)NC(=O)CN(C)C(=O)[C@@H]1Cc1ccc(C(F)(F)F)cc1", "note": "[PP0262] ([NMeL]I[Sar][Sar][NPrPhe(4-CF3)][Sar][hPhe(3-Cl-4-CF3)][Hyp](Me)[Ac5c][NMeGly(cPent)][NMeD]-Morpholide; lactam N-11)", "values": [
      {"measurement": "HRAS/KRAS (ratio of KD for GDP-bound HRAS wild-type to KD for KRAS)", "setting": "[1]; KD ratio HRAS/KRAS, SPR", "value": "B (a compound having 3 or more and less than 10 is denoted as B)"},
      {"measurement": "NRAS/KRAS (ratio of KD for GDP-bound NRAS wild-type to KD for KRAS)", "setting": "[2]; KD ratio NRAS/KRAS, SPR", "value": "B (a compound having 3 or more and less than 10 is denoted as B)"}
    ]},
    {"smiles": "CCCN(C)C(=O)[C@@H]1CC(=O)N(C)[C@@H](CC(C)C)C(=O)N[C@@H]([C@@H](C)OC)C(=O)N(C)CC(=O)N(C)[C@H]2C/C=C\\CCN(C2=O)[C@@H](Cc2ccc(C(F)(F)F)cc2)C(=O)N(C)CC(=O)N[C@@H](CCc2cc(F)c(C(F)(F)F)c(F)c2)C(=O)N2C[C@H](OCC)C[C@H]2C(=O)NC2(CC(C)(C)C2)C(=O)N(C)[C@@H](C2CCCC2)C(=O)N1C", "note": "[PP1917]", "values": [
      {"measurement": "HRAS/KRAS (ratio of KD value for HRAS to KD value for KRAS)", "setting": "[1]; [3]", "value": "A (a compound having 10 or more and less than 20 is denoted as A)"},
      {"measurement": "NRAS/KRAS (ratio of KD value for NRAS to KD value for KRAS)", "setting": "[2]; [4]", "value": "A (a compound having 10 or more and less than 20 is denoted as A)"}
    ]},
    {"smiles": "CCC[C@H]1C(=O)N[C@@H]([C@@H](C)CC)C(=O)N(C2CC2)CC(=O)N(C)[C@H]2C/C=C\\CCN(C2=O)[C@@H](Cc2ccc(C(F)(F)F)cc2)C(=O)N(C)CC(=O)N[C@@H](CCc2ccc(Cl)c(Cl)c2)C(=O)N2C[C@H](OCC)C[C@H]2C(=O)NC2(CC(C)(C)C2)C(=O)N(C)[C@@H](CC2CC2)C(=O)N(C)[C@H](C(=O)N(C)C)CC(=O)N1C", "note": "[PP2817]", "values": [
      {"measurement": "HRAS/KRAS (ratio of KD value with respect to GDP-bound HRAS wild-type protein to KD value with respect to KRAS)", "setting": "[1]; KD ratio HRAS/KRAS, class symbols", "value": "A (a compound having 10 or more and less than 20 is denoted as A)"},
      {"measurement": "NRAS/KRAS (ratio of KD value with respect to GDP-bound NRAS wild-type protein to KD value with respect to KRAS)", "setting": "[2]; KD ratio NRAS/KRAS, class symbols", "value": "A (a compound having 10 or more and less than 20 is denoted as A)"}
    ]}
  ]
}
